Patent publication US20110224242A1, “STYRLYQUINOLINES, THEIR PROCESS OF PREPARATION AND THEIR THERAPEUTIC USES” (BIOALLIANCE PHARMA, priority 2008, published 2011)
Where two headings read alike, the source gives them in different places.

What was measured:
[1] = Chemical stability at pH between 1 and 7; format: physicochemical
[2] = Stability in Hepes buffer 0.5 M pH 7.5 (UV spectrophotometry); format: physicochemical; conditions: HEPES 0.5 M pH 7.5, 37°, 50 μM (SQE94 and 79 at 25 μM)
Protocol: 2.1. Hepes Buffer 0.5M, pH 7.5. 16 μl of drug at 25 mM, in 8 ml of Hepes Buffer. Different time points were done, Oh, 2 h, 4 h, 24 h, and 48 h.
Stability of the compounds was performed in HEPES Buffer 0.5 M (pH 7.5) at 37 O, at a concentration of 50 μM. Compounds SQE94 and 79 were tested at a concentration of 25 μM to avoid parasite precipitation phenomena. Typically, stock solutions of compounds in DMSO (25 mM) were diluted in HEPES Buffer. Dilutions were stored at 37° C., protected from light. Sampling was done at different time points. Samples were analyzed on an UV-spectrophotometer using a wavelength scan between 200 and 700 nm. Superposition of UV-spectra gives the qualitative aspect of the stability of the drug. Based on the Beer-Lambert law, percentage of degradation of the drug over time was calculated, when placed at the maximum absorption wavelength.

in vitro = format: cell-based; conditions: human
Protocol: The cytotoxicity of compounds was evaluated using un-infected and infected Hel_a-P4 cell and CEM leukemia cells. CEM cell were obtained from the American Type Tissue Collection (Rockville, Md.).
A serial dilution of drugs is done to evaluate the cytotoxicity concentration and is identified by CC50 (concentration of drug which induces 50% of cytotoxicity)
The HeLa-P4 was cultured in the presence or absence of compounds for 2 days. After this time period, cells were cultivated with MTT for 3 hours, further the medium is removed. And the lysis buffer is incubated for 1 hour, followed by plate reading at 540 nm in a microplate reader.

[3] = system: wild type HIV-1 virus (NL 4.3 strains); assay: Antiviral activity assay CEM cells (p24 ELISA); format: cell-based; conditions: Human immunodeficiency virus 1, CCRF-CEM, read-out: CEM
Protocol: The activity is determined by infecting CEM cells with a wild type HIV-1 virus (NL 4.3 strains at 3 ng) on cells in presence or absence of drugs. A serial dilution of drugs is done to evaluate the EC50. […] After 48 hours incubation, the quantification is done by the evaluation of the viral protein p24 with a commercial Elisa Kit. P24 is a protein essential to the replication virus cycle. The quantification of this enzyme is proportional to the amount of virus produced by the infected cells.

HBX2 HIV integrase [4] = target: T1, HBX2 HIV integrase (Human immunodeficiency virus type 1 group M subtype B, UniProt P04585); assay: 3' LTR processing assay; format: biochemical
T1 construct: contains the cDNA encoding the HBX2 HIV integrase; His tag (N, cleaved yes); made in house; host or cells: Escherichia coli BL21 (DE3)
Protocol: (§1) The pET-15b-IN plasmid contains the cDNA encoding the HBX2 HIV integrase. His-tagged integrase protein was overexpressed in Escherichia coli BL21 (DE3) and purified under native conditions. Briefly, at an OD of 0.8, fusion protein expression was induced in bacterial cultures by the addition of IPTG (1 mM). Cultures were incubated for 3 h at 37° C., of ter which cells were centrifuged. The cell pellet was resuspended in ice-cold buffer A [20 mM Ths-HCl (pH 8), 1 M NaCl, 4 mM β-mercaptoethanol, and 5 mM imidazole], treated with lysozyme for 1 h on ice, and sonicated. After centrifugation (30 min at 10 000 rpm), the supernatant was filtered (0.45 μm) and incubated for at least 2 h with Ni-NTA agarose beads (Pharmacia). The beads were washed twice with 10 volumes of buffer A, 10 volumes of buffer A with 50 mM imidazole, and 10 volumes of buffer A with 100 mM imidazole. His-tagged integrase was then eluted with buffer A supplemented with 50 μM ZnSO4 and 1 M imidazole. The integrase concentration was adjusted to 0.1 mg/mL in buffer A. The fusion protein was cleaved using thrombin and dialyzed overnight against 20 mM Ths-HCl (pH 8), 1 M NaCl, and 4 mM (3-mercaptoethanol. After removal of biotinylated thrombin by incubation with streptavidin-agarose magnetic beads (Novagen, Madison, Wis.), a second dialysis was performed for 2 h against 20 mM Ths-HCl (pH 8), 1 M NaCl, 4 mM mercaptoethanol, and 20% (v/v) ethylene glycol. Fractions were aliquoted and rapidly frozen at −80° C.
Oligonucleotides U5B (5′-[…]-3′), U5B-2 (5′-GTGTGGAAAATCTCTAGCA-3′), U5A (5′-[…]-3′) were purchased from Eurogentec (Liege, Belgium) and further purified on an 18% denaturing acrylamide/urea gel. For processing, strand transfer, 100 pmol of U5B, U5B-2, respectively, were radiolabeled using T4 polynucleotide kinase and 50 μCi of [γ-32P]ATP (3000 Ci/mmol). The T4 kinase was heat inactivated, and unincorporated nucleotides were removed using a Sephadex G-10 column (GE Healthcare). NaCl was added to a final concentration of 0.1 M, and complementary unlabeled strand USA was added to either U5B or U5B-2. The mixture was heated to 90° C. for 3 min, and the DNA was annealed by slow cooling.
Processing reaction was performed using U5A-U5B, in buffer containing 20 mM Tris (pH 7.2), 50 mM NaCl, 10 mM DTT, and 10 mM MgCl2. […] The reactions were stopped by phenol/chloroform extraction, and DNA products were precipitated with ethanol. The products were separated in TE containing 7 M urea and electrophoresed on an 18% denaturing acrylamide/urea gel. Gels were analyzed using a STORM Molecular Dynamics phosphorimager and quantified with Image Quant™ 4.1 software.

HBX2 HIV integrase [5] = target: T1, HBX2 HIV integrase; assay: Strand transfer assay; format: biochemical
Protocol: as §1, with “The integrase concentration was adjusted to 0.1 mg/mL in buffer A. The fusion protein was cleaved using thrombin and dialyzed overnight against 20 mM Ths-HCl (pH 8), 1 M NaCl, and 4 mM (3-mercaptoethanol. After removal of biotinylated thrombin by incubation with streptavidin-agarose magnetic beads (Novagen, Madison, Wis.), a second dialysis was performed for 2 h against 20 mM Ths-HCl (pH 8), 1 M NaCl, 4 mM mercaptoethanol, and 20% (v/v) ethylene glycol. Fractions were aliquoted and rapidly frozen at −80° C.” left out
Processing, strand transfer reactions were performed using U5A-U5B-2, in buffer containing 20 mM Tris (pH 7.2), 50 mM NaCl, 10 mM DTT, 1 OmM MgCl2. […] Gels were analyzed using a STORM Molecular Dynamics phosphorimager and quantified with Image Quant™ 4.1 software.

[6] = system: wild type HIV-1 virus (NL 4.3 strains); assay: Antiviral activity assay on Hela P4 cells (beta-galactosidase, CPRG); format: cell-based; conditions: read-out: P4 IC50
Protocol: The antiviral activity is determined by infecting HelaP4 cells with a wild type HIV-1 virus (NL 4.3 strains at 3 ng) on cells in presence or absence of drugs. A serial dilution of drugs is done to evaluate the EC50. The effective concentration is the concentration of product at which virus replication is inhibited by 50 percent. After 48 hours incubation, the quantification is done by the evaluation of β-Galactosidase produced by the infected Hela P4 cells. The viral activity is evaluated by colorimethc assay, CPRG, followed by plate reading at 570 nm with a reference of 690 nm. The CPRG test is a colorimetric assay which allows to quantity the β-galactosidase produced by HIV-1 infected indicator cells (the β-Gal gene being under the control of the HIV-1 LTR).

[7] = Stability by HPLC in PEG400 and Vitamine E-TPGS/PEG 400 mixtures; format: physicochemical
Protocol: The second stability assay consists in the assessment according to standard HPLC analysis protocols over 24 hrs in PEG400 and Vitamine E-TPGS/PEG 400 mixtures, by focusing on the evolution of the concentration and peak purity of the compound. Compounds were dissolved in appropriate amounts of solvent and let under stirring protected from light for 24 hrs. Aliquots were transferred into eppendorfs and centrifuged at 10 000 g for 10 min. Supernatants were collected and appropriately diluted in DMSO/mobile phase mixtures before HPLC analysis. The Waters HPLC analysis system equipped with an ultraviolet detector and a Waters Symmetry Shield C18 column of 2.1 mm×50 mm ([…]) was used. A mobile phase of water/acetic acid 0.1% (Solvant A): Acetonitrile/acetic acid 0.1% (solvent B) mixture or a water/trifluoroacetic acid 0.1% (Solvant A): Acetonitrile/trifluoroacetic acid 0.1% (solvent B) mixture in the case of compound FZ41 was pumped according to a binary gradient described below, at a flow rate of 0.4 ml/min.

[8] = Solubility of compound SQE94 in pH-buffers; format: physicochemical; conditions: compound alone, room temperature, 24 h
Protocol: Solubility of compound SQE94 was determined in pH-buffers at pH values of 5, 6 and 7. 10 mg of SQE94 are added to 10 ml of each pH-buffer. Each solution is stirred at room temperature, away from light, for 24 h, then centrifugated. The amount of dissolved compound is determined by HPLC analysis.

[9] = CEM cells, HIV-1 NL 4.3, 48 hours, p24
[10] = Human immunodeficiency virus 1, HeLaP4, HeLa P4 cells, HIV-1 NL 4.3, 48 hours
[11] = Human immunodeficiency virus 1, HeLaP4, 48 h

| Structure (SMILES) | degradation rate ([1]; within less than 24 hrs, pH between 1 and 7) | % of degradation ([2]; 2 hrs) | % of degradation ([2]; 4 hrs) | % of degradation ([2]; 24 hrs) | IC50 at 2 days (in vitro) | EC50 [3, 9] | IC50 (HBX2 HIV integrase [4]) | IC50 (HBX2 HIV integrase [5]) | IC50 [6, 10] | degradation ([7]; within only 3 hrs, mixtures of excipients) | melting point | EC50 ([3]; 48 h) | IC50 [6, 11] | chemical profile stability ([1]; over 24 hrs at pH between 1 and 7) | degradation ([7]; over 24 hrs at room temperature in several mixtures of excipients) | Dissolved compound SQE94 ([8]; pH5 buffer) | Dissolved compound SQE94 ([8]; pH6 buffer) | Dissolved compound SQE94 ([8]; pH7 buffer) |
| --- | --- | --- | --- | --- | --- | --- | --- | --- | --- | --- | --- | --- | --- | --- | --- | --- | --- | --- |
| COc1cc(/C=C/c2ccc3ccc(C(=O)O)c(O)c3n2)cc(O)c1O [FZ41, reference compound] | 50-60% | 31.1% | 59.6% | 64.6% | > 100 µM | 25000 nM | 700 nM | 1700 nM | 5 µM | at least 10% | – | – | – | – | – | – | – | – |
| CC(=O)c1ccc(O)c2nc(/C=C/c3cc(O)c(O)cc3O)ccc12 [SQE74, 1-{2-[2(E)-(2,4,5-thhydroxyphenyl)-vinyl]-8-hydroxy-quinolin-5-yl}-ethanone] | – | 17.2% | 26.1% | 24.1% | 11.7 µM | 350 nM | 225 nM | – | 11.8 µM | – | – | – | – | – | – | – | – | – |
| CC(=O)c1ccc(O)c2nc(/C=C/c3cc(O)c(O)c(O)c3)ccc12 [SQE75, 1-{2-[2(E)-(3,4,5-thhydroxyphenyl)-vinyl]-8-hydroxy-quinolin-5-yl}-ethanone] | – | 15.7% | 17.5% | 18.7% | > 100 µM | 24700 nM | 510 nM | – | 9.6 µM | – | – | – | – | – | – | – | – | – |
| CC(=O)c1ccc(O)c2nc(/C=C/c3cc(O)c(O)c([N+](=O)[O-])c3)ccc12 [SQE79, 1-{2-[2(E)-(3,4-dihydroxy, 5-nitrophenyl)-vinyl]-8-hydroxy-quinolin-5-yl}-ethanone] | – | 19.2% | 26.9% | 42.9% | 4.2 µM | 400 nM | 225 nM | – | 4.6 µM | – | – | – | – | – | – | – | – | – |
| CC(=O)c1ccc(O)c2nc(/C=C/c3cc(O)c(O)c(Cl)c3)ccc12 [SQE86, (E)-1-(2-(3-chloro-4,5-dihydroxystyryl)-8-hydroxyquinolin-5-yl)ethanone] | – | 12.1% | 12.5% | 22.4% | 15 µM | – | 530 nM | – | – | – | 256 to 258 °C | 500 nM | 1 µM | – | – | – | – | – |
| CC(=O)c1ccc(O)c2nc(/C=C/c3ccc(O)c(C(=O)O)c3)ccc12 [SQE89, (E)-5-(2-(5-acetyl-8-hydroxyquinolin-2-yl)vinyl)-2-hydroxybenzoic acid] | – | <5% | <5% | <5% | 12.6 µM | – | 560 nM | – | – | – | 266 to 268 °C | – | 1 µM | – | – | – | – | – |
| COc1cc(/C=C/c2ccc3c(C(C)=O)ccc(O)c3n2)cc([N+](=O)[O-])c1O [SQE94, 1-{2-[2(E)-(3-nitro, 4-hydroxy, 5-methoxyphenyl)-vinyl]-8-hydroxy-quinolin-5-yl}-ethanone] | – | <5% | 8.2% | 30.8% | 56 µM | – | 724 nM | – | 1.6 µM | – | – | – | – | very stable chemical profiles | less than 10% | 1.4 µg/mL | 1.4 µg/mL | 5.5 µg/mL |
| CC(=O)c1ccc(O)c2nc(/C=C/c3ccc(C(=O)O)cc3[N+](=O)[O-])ccc12 [SQE96, 4-[2(E)-(5-Acetyl-8-hydroxy-quinolin-2-yl)-vinyl]-5-nitro-benzoic acid] | – | <5% | <5% | <5% | > 100 µM | – | 2300 nM | – | 40 µM | – | – | – | – | – | – | – | – | – |
